This note sets out measurements from ChEMBL document CHEMBL1201862, “PubChem BioAssay data set” (2004).

Test systems include A549; CAKI-1; COLO 205; DMS-114; HCT-15; HOP-92; K562; KM12; MOLT-4; Malme-3M; NCI-H23; NCI-H460; NCI-H522; NCI/ADR-RES; OVCAR-3; SF-268; SK-MEL-28; SK-MEL-5; UACC-257; RPMI-8226.
Holding throughout (experiment): NCI anticancer screen, dose series, 48 h

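Assay format: 96-well plates, 48-hour exposure. The concentration for 50% growth inhibition is given as GI50.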 Calls of active or inactive are those of the source. Rule as the data show it: active = GI50 up to about 1.1 µM and inactive = higher. Some results are limits rather than exact numbers.

On to `c1ccc2c3c(ccc2c1)-c1[nH]ncc1CCO3`, for which the GI50 was 37 µM (inactive) in the assay on A549; 33.4 µM (inactive) in the assay with CAKI-1; 37.2 µM (inactive) in the assay on COLO 205; 32.7 µM (inactive) in the assay on DMS-114; 20.5 µM with HCT-15; 27.5 µM (inactive) in the assay on HOP-92. Moreover, the GI50 is 32.8 µM (inactive) with K562; 37.2 µM (inactive) in the assay on KM12; 20.1 µM (inactive) in the assay on MOLT-4; 45.7 µM (inactive) with Malme-3M; 25.2 µM (inactive) with NCI-H23; 25.6 µM (inactive) in the assay on NCI-H460. Besides, the GI50 is 21.8 µM (inactive) with NCI-H522; 38.2 µM (inactive) in the assay with NCI/ADR-RES; 27.7 µM (inactive) in the assay with OVCAR-3; 37.8 µM (inactive) with SF-268; 50.8 µM (inactive) in the assay with SK-MEL-28; > 46.9 µM (inactive) in the assay with SK-MEL-5. In addition, the GI50 with UACC-257 was 27.7 µM (inactive).

Consider `CN1NC(c2ccc(Cl)cc2)=C(C#N)C(=O)CC1c1ccccc1` (configuration not stated), for which the GI50 in the assay on A549 was > 100 µM (inactive); in the assay with CAKI-1, > 100 µM (inactive); with COLO 205, > 100 µM (inactive); in the assay with DMS-114, > 100 µM (inactive); with HCT-15, > 100 µM; with HOP-92, > 100 µM (inactive). The GI50 in the assay on KM12 is > 100 µM (inactive); with NCI-H23 it was > 100 µM (inactive); with NCI-H460, > 100 µM (inactive); in the assay with NCI-H522 it was 79.4 µM (inactive); with RPMI-8226 it was > 100 µM (inactive); with SF-268, > 100 µM (inactive). The GI50 is > 100 µM (inactive) with SK-MEL-28, 72.9 µM (inactive) in the assay on SK-MEL-5 and > 100 µM (inactive) in the assay with UACC-257.

`COC(=O)c1cccc(N[C@@H]2c3cc4c(cc3C(c3cc(OC)c(O)c(OC)c3)[C@H]3C(=O)OCC32)OCO4)c1` (some centres not stated): the GI50 was 0.153 µM (active) with A549; 0.321 µM (active) with CAKI-1; 1.33 µM (inactive) in the assay on COLO 205; 0.568 µM (active) in the assay on DMS-114; 1.08 µM with HCT-15; 1.06 µM (active) in the assay with HOP-92. The GI50 in the assay with K562 was 0.902 µM (active); in the assay with KM12 it was 2.37 µM (inactive); in the assay on MOLT-4 it was 0.0328 µM (active); in the assay with Malme-3M, 2.33 µM (inactive); in the assay with NCI-H23, 0.63 µM (active); in the assay on NCI-H460, 0.0351 µM (active). For the same compound, the GI50 was 1.4 µM (inactive) in the assay with NCI-H522; 0.468 µM (active) in the assay on NCI/ADR-RES; 2.07 µM (inactive) in the assay with OVCAR-3; 1.37 µM (inactive) in the assay on RPMI-8226; 1.4 µM (inactive) with SF-268; 2.67 µM (inactive) in the assay on SK-MEL-28. The GI50 with SK-MEL-5 is 1.11 µM (active); in the assay on UACC-257 it was 0.659 µM (active).

Turning to `Cc1nc2ccccc2c(=O)n1Nc1ccc(C(=O)O)cc1`, the GI50 in the assay on A549 is > 100 µM (inactive); in the assay on CAKI-1, > 100 µM (inactive); with COLO 205 it was > 100 µM (inactive); with DMS-114 it was > 100 µM (inactive); in the assay on HCT-15, > 100 µM; in the assay on HOP-92 it was > 100 µM (inactive). The GI50 with K562, with KM12, with MOLT-4, with Malme-3M, with NCI-H23 and in the assay with NCI-H460 was > 100 µM (inactive) each time. In addition, the GI50 in the assay with NCI-H522, with NCI/ADR-RES, with OVCAR-3, in the assay on RPMI-8226, with SF-268 and with SK-MEL-28 was > 100 µM (inactive) in each case. The GI50 in the assay on SK-MEL-5 and in the assay with UACC-257 was > 100 µM (inactive) each time.

On to `CC(C)[C@](O)(C(=O)OCC1=CCN2CC[C@@H](O)[C@@H]12)[C@H](C)O`, for which the GI50 in the assay with A549 is > 375 µM (inactive); in the assay with CAKI-1, > 375 µM (inactive); with COLO 205, > 375 µM (inactive); in the assay on DMS-114, 368 µM (inactive); in the assay on HCT-15, > 375 µM; in the assay on HOP-92, > 375 µM (inactive). For the same compound, the GI50 with K562 is > 375 µM (inactive); with KM12, > 375 µM (inactive); in the assay with MOLT-4 it was > 375 µM (inactive); in the assay with Malme-3M, > 375 µM (inactive); in the assay with NCI-H23 it was > 375 µM (inactive); with NCI-H460, > 367 µM (inactive). The GI50 with NCI-H522 is 59.4 µM (inactive); with NCI/ADR-RES, > 375 µM (inactive); with OVCAR-3 it was > 375 µM (inactive); with RPMI-8226 it was > 375 µM (inactive); with SF-268, > 375 µM (inactive); in the assay on SK-MEL-28 it was > 375 µM (inactive). For the same compound, the figures for the GI50 in the assay on SK-MEL-5 and in the assay on UACC-257 were > 80.7 µM (inactive) and > 375 µM (inactive), respectively.

Regarding `COc1cccc(NC(=O)CSc2nnc(-c3ccc(NC(C)=O)cc3)o2)c1`, the GI50 in the assay with A549 is > 100 µM (inactive); in the assay on CAKI-1, > 100 µM (inactive); with COLO 205 it was > 100 µM (inactive); in the assay on DMS-114 it was > 100 µM (inactive); with HCT-15 it was > 100 µM; in the assay with HOP-92, > 100 µM (inactive). Further, the GI50 with K562 was > 100 µM (inactive); in the assay with KM12 it was 49.4 µM (inactive); with MOLT-4, > 100 µM (inactive); in the assay on Malme-3M, > 100 µM (inactive); in the assay with NCI-H23, > 100 µM (inactive); with NCI-H460 it was > 100 µM (inactive). Moreover, the GI50 with NCI-H522, in the assay on OVCAR-3, in the assay with RPMI-8226, in the assay with SF-268, in the assay with SK-MEL-28 and in the assay with SK-MEL-5 was > 100 µM (inactive) in each case. In the assay on UACC-257, the GI50 was > 100 µM (inactive).

`O=C1C(Br)=CC2([N+](=O)[O-])CCNC3=C(C4=NCCc5c[nH]c(c54)C3=O)C2=C1Br` (configuration not stated): the GI50 with A549 is 3 µM (inactive); in the assay with CAKI-1, 1.49 µM (inactive); in the assay on COLO 205, 0.0178 µM (active); with DMS-114 it was 0.163 µM (active); in the assay on HCT-15, 0.796 µM; with HOP-92 it was 0.811 µM (active). Besides, the GI50 in the assay on K562 is 0.424 µM (active); with KM12 it was 3.96 µM (inactive); in the assay on MOLT-4 it was 1.14 µM (inactive); in the assay on NCI-H23, 1.39 µM (inactive); with NCI-H460 it was 3.39 µM (inactive); in the assay with NCI-H522 it was 0.1 µM (active). In addition, the GI50 in the assay with NCI/ADR-RES is 0.128 µM (active); in the assay with OVCAR-3 it was 0.0546 µM (active); with RPMI-8226 it was 0.159 µM (active); in the assay with SF-268, 2.26 µM (inactive); in the assay with SK-MEL-28, 3.26 µM (inactive); in the assay with SK-MEL-5, 0.589 µM (active). The GI50 in the assay on UACC-257 was 0.279 µM (active).
